Test results reported in patent publication US12673950B2, “Spiros and related analogs for inhibiting YAP/TAZ-TEAD” (THE KATHOLIEKE UNIVERSITEIT LEUVEN, priority 2021, dated 2026).

Key:
Assay type in all cases: cell-based
[1] = test system: YAP/TAZ-TEAD transcription; assay: Reporter gene assay for measuring the inhibition of YAP/TAZ-TEAD transcription (TEAD-responsive element luciferase reporter in Hek293T cells); conditions: Hek293T cells transfected with TEAD-responsive luciferase reporter, 24 hours incubation
Description: Hek293T cells are cultured in DMEM supplemented with 10% fetal bovine serum, Sodium pyruvate, Sodium bicarbonate, L-glutamine. The cells are harvested and transiently transfected with TEAD-responsive element luciferase reporter. Transfected cells are plated in 384-wells plate containing pre-diluted compounds. After 24 hours incubation at 37° C./5% CO2, assay plates were cooled down to RT and levelled to an equal volume per well, prior to the addition of 25 uL luciferase substrate SteadyLite (Perkin Elmer)/well. The plate was shaken for 10 min at 600 rpm, centrifuged for 1 min at 500 rpm and measured with an Envision reader (PerkinElmer). The amount of relative light units produced by the TEAD reporter is used to calculated percent of inhibition.
The percent of reporter inhibition was calculated in the presence of a positive control inhibitor (100% inhibition) versus a condition with the presence of the vehicle basal activity of the reporter (0% inhibition). The ability of a test compound to inhibit this activity was determined as: Percentage inhibition=[1−((RLU determined in the presence of vehicle−RLU determined for sample with test compound present) divided by (RLU determined in the presence of vehicle−RLU determined for sample with positive control inhibitor))]*100
The activities of example compounds tested are depicted in Table 3. The activity ranges A, B and C refer to IC50 values in the reporter gene assay as follows: “A”: IC50<1 μM; “B”: 1 μM≤IC50≤20 μM and “C”: IC50>20 μM; NT=not tested.

[2] = test system: NCI-H226; assay: Mesothelioma cell line proliferation assay (ATPlite), NCI-H226; conditions: Homo sapiens, 144 h; NCI-H226 mesothelioma cells, 6 days incubation, ATPlite cell viability
Description: (§1) Mesothelioma cell lines, NCI-H226 and NCI-H2052 (all sourced from the ATCC cell culture collection) are plated in 96-well plates (Corning® 96 Well White Polystyrene Microplate clear flat bottom, white polystyrene (TC-Treated)), at 1500 cells/well in full medium (RPMI 1640 ATCC modification with L-glutamine, HEPES, Phenol Red, Sodium Pyruvate, High glucose, Low sodium bicarbonate and 10% fetal bovine serum). Cells are incubated overnight at 37° C. in an incubator with 5% CO2. Then compounds, dissolved in DMSO, are added in dose-response. Cells are incubated with compound dilutions for another 6 days at 37° C. in an incubator with 5% CO2. Cell viability is quantitated using the ATPlite kit (Perkin-Elmer) and the luminescence is read-out using an Envision instrument (Perkin-Elmer). The amount of relative light units produced using the ATPlite kit is used to calculated percent of inhibition.
(§2) The activities of some example compounds are depicted in Table 4. The activity ranges A, B and C refer to EC50 values in the mesothelioma cell line proliferation assay as described as follows: “A”: EC50<1 μM; “B”: 1 μM≤EC50≤10 μM and “C”: EC50>10 μM; NT: not tested.

[3] = test system: NCI-H2052; assay: Mesothelioma cell line proliferation assay (ATPlite), NCI-H2052; conditions: Homo sapiens, 144 h; NCI-H2052 mesothelioma cells, 6 days incubation, ATPlite cell viability
Description: as §1, §2

Compound | IC50 [1] [µM] | EC50 [2] [µM] | EC50 [3] [µM] | IC50 ([1]; Homo sapiens, HEK-293T, 24 h) [µM]
C=CC(=O)N1CCC2(Cc3ccccc3N(c3ccc(C(F)(F)F)cc3)C2)C1 (single isomer, unassigned) [Cpd. No. 003-En1, (R)- or (S)-1-(1′-(4-(trifluoromethyl)phenyl)-1′,4′-dihydro-2′H-spiro[pyrrolidine-3,3′-quinolin]-1-yl)prop-2-en-1-one] | < 1 | – | – | –
CS(=O)(=O)N1CCC2(Cc3ccccc3N(c3ccc(C(F)(F)F)cc3)C2)C1 (single isomer, unassigned) [Cpd. No. 005-En2, (R)- or (S)-1-(methylsulfonyl)-1′-(4-(trifluoromethyl)phenyl)-1′,4′-dihydro-2′H-spiro[pyrrolidine-3,3′-quinoline]] | < 1 | < 1 | < 1 | –
C=CC(=O)N1CC2(Cc3ccccc3N(c3ccc(C(F)(F)F)cc3)C2)C1 [Cpd. No. 006, 1-(1′-(4-(trifluoromethyl)phenyl)-1′,4′-dihydro-2′H-spiro[azetidine-3,3′-quinolin]-1-yl)prop-2-en-1-one] | – | < 1 | < 1 | < 1
CS(=O)(=O)N1CCC2(Cc3ccccc3N(c3ccc(C(F)(F)F)cc3)C2)C1 (single isomer, unassigned) [Cpd. No. 005-En1, (R)- or (S)-1-(methylsulfonyl)-1′-(4-(trifluoromethyl)phenyl)-1′,4′-dihydro-2′H-spiro[pyrrolidine-3,3′-quinoline]] | > 20 | – | – | –
C=CC(=O)N1CCC2(Cc3ccccc3N(c3ccc(C(F)(F)F)cc3)C2)C1 (racemic) [Cpd. No. 003, 1-(1′-(4-(trifluoromethyl)phenyl)-1′,4′-dihydro-2′H-spiro[pyrrolidine-3,3′-quinolin]-1-yl)prop-2-en-1-one] | – | < 1 | < 1 | < 1
CCC(=O)N1CCC2(Cc3ccccc3N(c3ccc(C(F)(F)F)cc3)C2)C1 (single isomer, unassigned) [Cpd. No. 004-En1, (R)- or (S)-1-(1′-(4-(trifluoromethyl)phenyl)-1′,4′-dihydro-2′H-spiro[pyrrolidine-3,3′-quinolin]-1-yl)propan-1-one] | > 20 | – | – | –
C=CC(=O)N1CCC2(CC1)Cc1ccccc1N(c1ccc(C(F)(F)F)cc1)C2 [Cpd. No. 002, 1-(1′-(4-(trifluoromethyl)phenyl)-1′,4′-dihydro-2′H-spiro[piperidine-4,3′-quinolin]-1-yl)prop-2-en-1-one] | – | < 1 | 1 to 10 | < 1
C=CC(=O)N1CCC2(Cc3ccccc3N(c3ccc(C(F)(F)F)cc3)C2)C1 (single isomer, unassigned) [Cpd. No. 003-En2, (R)- or (S)-1-(1′-(4-(trifluoromethyl)phenyl)-1′,4′-dihydro-2′H-spiro[pyrrolidine-3,3′-quinolin]-1-yl)prop-2-en-1-one] | – | < 1 | < 1 | < 1
CCC(=O)N1CCC2(Cc3ccccc3N(c3ccc(C(F)(F)F)cc3)C2)C1 (single isomer, unassigned) [Cpd. No. 004-En2, (R)- or (S)-1-(1′-(4-(trifluoromethyl)phenyl)-1′,4′-dihydro-2′H-spiro[pyrrolidine-3,3′-quinolin]-1-yl)propan-1-one] | 1 to 20 | – | – | –
C=CC(=O)N1CCC2(CC1)Cc1ccccc1N(c1ccc(C(F)(F)F)cc1)C2=O [Cpd. No. 001, 1-acryloyl-1′-(4-(trifluoromethyl)phenyl)-1′,4′-dihydro-2′H-spiro[piperidine-4,3′-quinolin]-2′-one] | – | – | – | < 1

Other lines, results leading:

IC50 [1] [µM] | EC50 [2] [µM] | EC50 [3] [µM] | IC50 ([1]; Homo sapiens, HEK-293T, 24 h) [µM] | Compound
– | – | – | < 1 | CS(=O)(=O)N1CCC2(Cc3cc(C(F)(F)F)ccc3N(c3ccc(C(F)(F)F)cc3)C2)C1 (stereo not shown) [Cpd. No. 011, 1′-methylsulfonyl-6-(trifluoromethyl)-1-[4-(trifluoromethyl)phenyl]spiro[2,4-dihydroquinoline-3,3′-pyrrolidine]]
– | – | – | > 20 | CCC(=O)N1CC2(Cc3ccccc3N(c3ccc(C(F)(F)F)cc3)C2)C1 [Cpd. No. 007, 1-(1′-(4-(trifluoromethyl)phenyl)-1′,4′-dihydro-2′H-spiro[azetidine-3,3′-quinolin]-1-yl)propan-1-one]
– | – | – | > 20 | CC(=O)N1CCC2(Cc3cc(C(F)(F)F)ccc3N(c3ccc(C(F)(F)F)cc3)C2)C1 (stereo not shown) [Cpd. No. 010, 1-[6-(trifluoromethyl)-1-[4-(trifluoromethyl)phenyl]spiro[2,4-dihydroquinoline-3,3′-pyrrolidine]-1′-yl]ethanone]
– | – | – | 1 to 20 | CC(NC(=O)N1CCC2(Cc3ccccc3N(c3ccc(C(F)(F)F)cc3)C2)C1)c1ccccn1 (stereo not shown) [Cpd. No. 008, N-[1-(2-pyridyl)ethyl]-1-[4-(trifluoromethyl)phenyl]spiro[2,4-dihydroquinoline-3,3′-pyrrolidine]-1′-carboxamide]
– | – | – | < 1 | C=CC(=O)N1CCC2(Cc3cc(C(F)(F)F)ccc3N(c3ccc(C(F)(F)F)cc3)C2)C1 (stereo not shown) [Cpd. No. 009, 1-[6-(trifluoromethyl)-1-[4-(trifluoromethyl)phenyl]spiro[2,4-dihydroquinoline-3,3′-pyrrolidine]-1′-yl]prop-2-en-1-one]
